From the NIST ThermoML archive (doi:10.1016/j.fluid.2011.04.022)
± gives the expanded uncertainty stated by the source.

Settings: Liquid, Vibrating tube method

FC(F)(F)CC(F)(F)F [1,1,1,3,3,3-hexafluoropropane]
mass density [kg/m3]
Settings | 293.38 K | 303.23 K | 313.1 K | 322.94 K | 333.06 K | 343.19 K | 353.23 K | 363.22 K | 373.17 K
1000 kPa | 1380.41 ± 1.6 | 1346.41 ± 1.8 | 1310.15 ± 2 | 1272.73 ± 2.3 | 1230.59 ± 2.5 | – | – | – | –
3000 kPa | 1389.7 ± 1.6 | 1356.85 ± 1.7 | 1322.54 ± 1.9 | 1287.52 ± 2.1 | 1248.74 ± 2.4 | 1207.31 ± 2.8 | 1161.43 ± 3.2 | – | –
5000 kPa | 1398.14 ± 1.6 | 1366.62 ± 1.6 | 1333.75 ± 1.7 | 1300.71 ± 1.9 | 1264.58 ± 2 | 1226.45 ± 2.3 | 1185.57 ± 2.6 | 1140.64 ± 3 | 1091.26 ± 3.4
10000 kPa | 1417.22 ± 1.5 | 1388.23 ± 1.6 | 1358.32 ± 1.7 | 1328.74 ± 1.8 | 1297.09 ± 1.9 | 1264.58 ± 2 | 1230.77 ± 2.3 | 1195.26 ± 2.5 | 1158.13 ± 2.9
15000 kPa | 1434.22 ± 1.5 | 1407.04 ± 1.5 | 1379.33 ± 1.6 | 1352.16 ± 1.6 | 1323.56 ± 1.7 | 1294.29 ± 1.8 | 1264.63 ± 1.9 | 1233.73 ± 2.1 | 1202.21 ± 2.2
20000 kPa | 1449.45 ± 1.5 | 1423.79 ± 1.5 | 1397.77 ± 1.5 | 1372.4 ± 1.6 | 1345.92 ± 1.6 | 1319.04 ± 1.7 | 1292.08 ± 1.8 | 1264.17 ± 1.8 | 1236.05 ± 1.9
25000 kPa | 1463.39 ± 1.5 | 1438.88 ± 1.5 | 1414.16 ± 1.5 | 1390.33 ± 1.6 | 1365.48 ± 1.6 | 1340.43 ± 1.6 | 1315.3 ± 1.7 | 1289.66 ± 1.7 | 1263.9 ± 1.8
30000 kPa | 1476.18 ± 1.5 | 1452.75 ± 1.5 | 1429.13 ± 1.5 | 1406.5 ± 1.6 | 1382.82 ± 1.6 | 1359.27 ± 1.6 | 1335.89 ± 1.6 | 1311.7 ± 1.6 | 1287.72 ± 1.7
35000 kPa | 1488.18 ± 1.6 | 1465.54 ± 1.6 | 1442.8 ± 1.6 | 1421.01 ± 1.6 | 1398.61 ± 1.6 | 1376.24 ± 1.6 | 1354.11 ± 1.6 | 1331.22 ± 1.6 | 1308.62 ± 1.6
40000 kPa | 1499.36 ± 1.6 | 1477.52 ± 1.6 | 1455.53 ± 1.6 | 1434.57 ± 1.6 | 1413.18 ± 1.6 | 1391.75 ± 1.6 | 1370.58 ± 1.6 | 1348.77 ± 1.6 | 1327.34 ± 1.6
50000 kPa | 1519.84 ± 1.7 | 1499.35 ± 1.7 | 1478.52 ± 1.7 | 1459.05 ± 1.7 | 1439.06 ± 1.7 | 1419.24 ± 1.6 | 1399.7 ± 1.6 | 1379.54 ± 1.6 | 1359.88 ± 1.6
60000 kPa | 1538.35 ± 1.9 | 1518.78 ± 1.9 | 1499.21 ± 1.8 | 1480.75 ± 1.8 | 1461.86 ± 1.8 | 1443.29 ± 1.8 | 1424.96 ± 1.7 | 1406.01 ± 1.7 | 1387.66 ± 1.7
70000 kPa | 1555.2 ± 2.1 | 1536.58 ± 2 | 1517.63 ± 2 | 1500.21 ± 2 | 1482.19 ± 1.9 | 1464.6 ± 1.9 | 1447.34 ± 1.9 | 1429.34 ± 1.8 | 1412.03 ± 1.8

FC(F)CC(F)(F)F [1,1,1,3,3-pentafluoropropane]
mass density [kg/m3]
Settings | 293.84 K | 303.46 K | 313.18 K | 323 K | 332.83 K | 343.01 K | 353 K | 362.91 K | 372.94 K
1000 kPa | 1352.16 ± 1.4 | 1326.31 ± 1.5 | 1299.2 ± 1.5 | 1270.55 ± 1.6 | 1240.26 ± 1.7 | 1206.92 ± 1.9 | – | – | –
3000 kPa | 1357.97 ± 1.4 | 1332.8 ± 1.4 | 1306.56 ± 1.5 | 1278.98 ± 1.6 | 1250.02 ± 1.7 | 1218.46 ± 1.8 | 1185.75 ± 2 | 1150.79 ± 2.2 | 1112.26 ± 2.5
5000 kPa | 1363.53 ± 1.4 | 1338.98 ± 1.4 | 1313.51 ± 1.4 | 1286.86 ± 1.5 | 1259.06 ± 1.6 | 1228.97 ± 1.7 | 1198.11 ± 1.8 | 1165.55 ± 1.9 | 1130.36 ± 2.2
10000 kPa | 1376.42 ± 1.4 | 1353.32 ± 1.4 | 1329.44 ± 1.4 | 1304.71 ± 1.5 | 1279.16 ± 1.5 | 1251.88 ± 1.6 | 1224.38 ± 1.7 | 1195.94 ± 1.8 | 1165.97 ± 1.9
15000 kPa | 1388.34 ± 1.4 | 1366.31 ± 1.4 | 1343.73 ± 1.4 | 1320.47 ± 1.4 | 1296.63 ± 1.5 | 1271.37 ± 1.5 | 1246.17 ± 1.6 | 1220.45 ± 1.6 | 1193.67 ± 1.7
20000 kPa | 1399.29 ± 1.4 | 1378.22 ± 1.4 | 1356.77 ± 1.4 | 1334.65 ± 1.4 | 1312.15 ± 1.4 | 1288.45 ± 1.5 | 1265.01 ± 1.5 | 1241.23 ± 1.6 | 1216.58 ± 1.6
25000 kPa | 1409.54 ± 1.4 | 1389.33 ± 1.4 | 1368.61 ± 1.4 | 1347.58 ± 1.4 | 1326.17 ± 1.4 | 1303.77 ± 1.4 | 1281.67 ± 1.5 | 1259.38 ± 1.5 | 1236.4 ± 1.5
30000 kPa | 1419.03 ± 1.4 | 1399.65 ± 1.4 | 1379.73 ± 1.4 | 1359.46 ± 1.4 | 1339.02 ± 1.4 | 1317.65 ± 1.4 | 1296.64 ± 1.5 | 1275.54 ± 1.5 | 1253.82 ± 1.5
35000 kPa | 1428.09 ± 1.5 | 1409.33 ± 1.4 | 1390.16 ± 1.4 | 1370.64 ± 1.4 | 1350.93 ± 1.4 | 1330.42 ± 1.4 | 1310.33 ± 1.5 | 1290.2 ± 1.5 | 1269.55 ± 1.5
40000 kPa | 1436.79 ± 1.5 | 1418.45 ± 1.5 | 1399.89 ± 1.5 | 1381.03 ± 1.5 | 1362.03 ± 1.5 | 1342.2 ± 1.5 | 1322.95 ± 1.5 | 1303.67 ± 1.5 | 1283.89 ± 1.5
50000 kPa | 1452.73 ± 1.6 | 1435.43 ± 1.6 | 1417.82 ± 1.6 | 1400.08 ± 1.6 | 1382.12 ± 1.5 | 1363.61 ± 1.5 | 1345.62 ± 1.5 | 1327.67 ± 1.5 | 1309.28 ± 1.5
60000 kPa | 1467.39 ± 1.7 | 1450.88 ± 1.7 | 1434.07 ± 1.7 | 1417.12 ± 1.6 | 1400.21 ± 1.6 | 1382.71 ± 1.6 | 1365.63 ± 1.6 | 1348.77 ± 1.6 | 1331.43 ± 1.6
70000 kPa | 1480.99 ± 1.9 | 1465.1 ± 1.8 | 1449.07 ± 1.8 | 1432.87 ± 1.8 | 1416.64 ± 1.8 | 1399.92 ± 1.7 | 1383.75 ± 1.7 | 1367.68 ± 1.7 | 1351.23 ± 1.6
